{"source": "patent US10695436B2", "about": "“Non-cleavable polymer conjugated with alpha V beta 3 integrin thyroid antagonists” (NANOPHARMACEUTICALS, LLC, priority 2016, dated 2020)", "key": {"[1]": {"system": "pancreatic cancer SUIT 2 xenografts", "assay": "Pancreatic cancer SUIT 2 xenografts, with or without radiation", "assay_type": "in vivo, mouse", "conditions": "for Decrease in tumor size, combination with radiation / Decrease in cell viability, combination with radiation / Increase of necrosis, combination with radiation: vs. non-irradiated control; for Tumor weight reduction after 20 days / Increase in % cell necrosis in tissue sections / Percent reduction in tumor cell viability: no radiation", "description": "Female NCr mice (Taconic Farms, Hudson, N.Y.) for in vivo studies obtained at 5-6 weeks of age (20 gm body weight) and maintained under specific pathogen-free conditions, and food and water provided ad libitum. The animals allowed to acclimate for 5 days. Cultured human SUIT 2 cells were harvested and implanted subcutaneously (s.c.) in each flank of the mice. Inocula comprising 100 μL, 50% Matrigel °, and containing 2×10^6 tumor cells was prepared. Tumors were grown for 7 days, at which time the animals were randomized into control and P-bi-TAT groups (6 animals/group, 12-carcinoma grafts/group). Starting on day 0, drug was administered at 3 or 10 mg of P-bi-TAT/kg body weight, daily for 20 days (to experimental day 19). Control animals received vehicle (PBS) daily. Animals were sacrificed on experimental day 20. Tumors were harvested and the weight of the tumors were measured. Tumors were formalin-fixed, imbedded in paraffin and sliced.\nEffectiveness of radiation therapy, alone and in conjunction with P-bi-TAT was also assessed. The Radiation treatment was one Gy administered to right flank xenografts on days 10 and 17. Geometry of flank exposure excluded radiation exposure to the left flank of study animals, so that the left flank served as a control in the radiation studies."}, "[2]": {"system": "orthotropic brain GBM tumor and subcutaneous GBM xenografts", "assay": "Kinetics of Cy5 labeled conjugates in GBM tumors (IVIS imaging)", "assay_type": "in vivo", "description": "Each group of animals was provided with orthotropic implants (GBM) and after tumor growth in the brain and subcutaneously implanted GBM Xenografts. Polymer conjugated MAT 210, TAT 230 or DAT 220 derivatives were injected subcutaneously with P-bi-TAT-Cy5 and other polymer conjugated TAT 230 or DAT 220 derivative-Cy5. IVIS imaging was performed immediately after injection and at 30 min, 1 h, 2 h, 3 h, 4 h to detect the fluorescence intensity at the orthotropic brain xenograft tumor site (brain) and subcutaneous xenografts tumors. […] The graphs depicted in FIGS. 34 and 35 describe the kinetics of the thyrointegrin antagonist derivatives' uptake into GBM tumors in the brain or subcutaneously implanted tumors. FIGS. 34-35 describe the effects of the polymer conjugated thyrointegrin antagonist derivatives containing MAT 210, DAT 220 and TAT 230 over time including bifunctional embodiments thereof."}, "U87-luc cells": {"system": "U87-luc cells", "assay": "GBM (U87-luc) xenografts, orthotopic and subcutaneous, 7 days treatment", "assay_type": "in vivo, mouse", "conditions": "1, 3 and 10 mg/kg, SC daily for 7 days", "description": "Glioblastoma cells: U87-luc cells implanted orthotopically at 0.2×10^6 cell in 20 ul, in Matrigel and subcutaneously xenografted at 2×10^6 cells/implant with Matrigel in athymic female mice. Animals treated with polymers conjugated thyrointegrin antagonists, including derivatives of P-DAT 720, P-TAT 730 and bifunctional derivatives thereof for 7 days after 1 day post-implant and IVIS imaging of the brain tumor and subcutaneous tumor xenograft. […] FIGS. 38-40 depict the measurable dose-dependent effects of p-bi-TAT 1030 on brain GBM tumor and subcutaneous GBM tumor including the effect on luminescent signals of GBM in the brain, average tumor weight and bioluminescent intensity."}, "[3]": {"assay": "Safety studies, C57BL6 mice, 14 days", "assay_type": "in vivo", "description": "Preclinical toxicology of a representative of the polymer conjugated thyrointegrin antagonist antiangiogenic agent of P-bi-TAT was pursued in 5-to-6 week-old C57BL6 mice, treated for 14 days with varying doses of P-bi-TAT. The treatment groups were control (vehicle), 1 mg/kg, 3 mg/kg, 10 mg/kg, 30 mg/kg, 100 mg/kg and 330 mg/kg P-bi-TAT, administered daily s.c. for 14 days. Each treatment group consisted of 5 male and 5 female animals, and animal weights were measured twice weekly. Mice terminated after 14 days and blood samples collected from the retro-orbital venous plexus. Blood samples centrifuged, and harvested plasma was stored at −80° C. until subjected to analyses described below.\nLiver function was estimated by measurement in stored plasma of alanine transaminase (ALT) and aspartate transaminase (AST) activities (Colorimetric kit, Biovision, Inc., Milpitas, Calif.) the data for which is shown in FIG. 44. Cardiac troponin I (cTnI) levels in plasma were measured by an ELISA method (Life Diagnostics, West Chester, Pa.) as an index of myocardial damage (FIG. 44). It is a troponin found exclusively in the heart and not in other forms of muscle. Kidney function estimated by measurement of plasma creatinine concentration (Colorimetric kit, Biovision, Inc.) (FIG. 44). Satisfactory standard curves were constructed for each of the liver and kidney assays. […]"}, "[4]": {"system": "Matrigel growth factors implant-mediated angiogenesis", "assay": "Mouse Matrigel-growth factors implant angiogenesis model (hemoglobin)", "assay_type": "in vivo", "conditions": "10, 30, 100 μg/10 μl; day 14", "description": "The mouse Matrigel model was performed in accordance with institutional guidelines for animal safety and welfare. Female mice C56/BL aged 5-6 weeks and body weights of 20 g were purchased from Taconic Farms (Hudson, N.Y., USA). The animals were maintained under specific pathogen-free conditions and housed 4 animals per cage, under controlled conditions of temperature (20-24° C.) and humidity (60-70%) and a 12 h light/dark cycle. The in vivo study carried out in the animal facility of the Veterans Affairs (VA) Medical Center, Albany, N.Y., and the experimental protocol approved by the VAIACUC. Mice were acclimated for 5 d prior to the start of experiments. […]\nPolymer Conjugated DAT, TAT or MAT derivatives were tested at three different doses (10, 30, 100 μg/10 μl). […] At day 14-post plug implant, all animals were sacrificed and hemoglobin contents were quantitated using spectrophotometry. […]\nMatrigel plug hemoglobin (Hb) content was indexed as a measure of new vascularity formation. […] A volume of 50 μl of supernatant were mixed with 50 μl of Drabkin's reagent and allowed to sit at room temperature for 15-30 min, after which 100 μl was placed in a 96-well plate and absorbance was measured at 540 nm with a Microplate Manager ELISA reader. The Hb concentration was expressed as mg/ml based on comparison with a standard curve."}, "[5]": {"system": "U87MG glioblastoma xenografts", "assay": "U87MG-luc glioblastoma subcutaneous xenografts in the nude mouse", "assay_type": "in vivo", "description": "The xenograft model of glioblastoma is a standard model for study of GBM. In the current studies, athymic, immunodeficient NCr nude mice aged 5-6 weeks and weighing 18-20 g were used. Animals were provided with ad libitum access to water and food. Animals allowed to acclimatize to the facility for 5 days prior to study. Cultured U87MG-luc cells were harvested and implanted subcutaneously (s.c.) in each flank (5×10^6 cells in 100 uL volumes containing 50% Matrigel) Tumors were grown for 2 days (to an initial volume of 150-250 mm^3) before administration of the control, C-DAT 1320, C-TAT 1330, P-TAT 730, P-bi-DAT 1020, P-bi-TAT 1030. Immediately before initiation of treatment at 2 days after implantation, animals were divided into control and treatment groups containing similar distributions of tumor volumes (calipers measurement). Polymer conjugated P-DAT 720 and P-TAT 730 (3 mg or 10 mg/kg body weight) was administered daily s.c. to two groups of animals×21 days, and vehicle (PBS, pH 8.0/0.5% ethanol) was administered daily s.c. to one group of animals as control×21 days. There were 4 animals and 8 grafts/treatment group. The control group and one group of drug-treated animals humanely sacrificed at 21 days; the second group of drug-treated mice observed off therapy for an additional 22 days to detect any tumor re-growth. The second drug-treated group thus observed for a total of 43 days. Tumors harvested and weighed, then fixed, sliced and subjected to hematoxylin and eosin (H&E) staining. Microscopic slides accommodated the full diameter of the control tumors. […]\nHistologic evaluation of paraffin-embedded tissue sections were stained (hematoxylin and eosin), and each section was coded. The area of the section measured with a stage micrometer, and the percentage of viable vs. necrotic tumor, manifested by loss of cell density, dissolution of the plasma membrane and loss of nuclear structure estimated visually. The number of mitoses and apoptotic cells per high power field was counted for 5 fields of viable tumor areas and averaged per tissue section. […]"}}, "data": [{"substance": "O,O′-Bis({4-[3,5-diiodo-4-(1-methylen-1,2,3-triazol-4-ylmethoxy)phenoxy]-3,5-diiodophenyl}acetic acid) polyethylene glycol [P-bi-TAT]", "values": [{"measurement": "Decrease in tumor size, combination with radiation", "setting": "[1]; 3 mg P-bi-TAT/kg plus one Gy radiation", "result": 71, "unit": "%"}, {"measurement": "Tumor weight reduction after 20 days", "setting": "[1]; 3 mg/kg daily", "result": 55, "unit": "%"}, {"measurement": "Decrease in cell viability, combination with radiation", "setting": "[1]; 3 mg/kg plus 1 Gy radiation", "result": 54, "unit": "%"}, {"measurement": "Increase of necrosis, combination with radiation", "setting": "[1]; 3 mg/kg plus 1 Gy radiation", "result": 65, "unit": "%"}, {"measurement": "Increase in % cell necrosis in tissue sections", "setting": "[1]; 3 mg/kg", "result": "not significant"}, {"measurement": "Percent reduction in tumor cell viability", "setting": "[1]; 3 mg/kg", "result": "insignificant"}, {"measurement": "Decrease in tumor size, combination with radiation", "setting": "[1]; 10 mg P-bi-TAT/kg plus one Gy radiation", "result": 77, "unit": "%"}, {"measurement": "Tumor weight reduction after 20 days", "setting": "[1]; 10 mg/kg daily", "result": 65, "unit": "%"}, {"measurement": "Decrease in cell viability, combination with radiation", "setting": "[1]; 10 mg/kg plus 1 Gy radiation", "result": 68, "unit": "%"}, {"measurement": "Increase of necrosis, combination with radiation", "setting": "[1]; 10 mg/kg plus 1 Gy radiation", "result": 70, "unit": "%"}, {"measurement": "Increase in % cell necrosis in tissue sections", "setting": "[1]; 10 mg/kg", "result": "more than a doubling"}, {"measurement": "Percent reduction in tumor cell viability", "setting": "[1]; 10 mg/kg", "result": 43, "unit": "%"}, {"measurement": "Cy5 signal in the brain over time", "setting": "[2]; subcutaneous injection, IVIS up to 4 hours", "result": "seen in the brain at 30 minutes and sustained for the 4 hours of monitoring"}, {"measurement": "Cy5 signal in brain GBM tumor versus subcutaneous GBM tumor xenografts", "setting": "[2]; tumors removed after 4 hours", "result": "comparable"}, {"measurement": "Suppression of tumor and cell viability in brain and subcutaneous GBM tumor", "setting": "U87-luc cells", "result": "dose dependent suppression of the tumor"}, {"measurement": "Body weights", "setting": "[3]; 1-330 mg/kg daily s.c. for 14 days", "result": "unaffected"}, {"measurement": "Liver, heart or kidney toxicity (ALT, AST, cTnI, creatinine in plasma)", "setting": "[3]; male and female mice, 2 weeks, up to 100-fold the efficacious dose (3-10 mg/kg)", "result": "no evidence of liver, heart or kidney toxicity"}, {"measurement": "Anti-angiogenic effect (Matrigel plug hemoglobin levels)", "setting": "[4]", "result": "dose dependent response on angiogenesis"}, {"measurement": "Reduction in tumor cell viability (histological score)", "setting": "[5]; 3 mg P-bi-TAT/kg s.c. daily for 21 days", "result": 62, "unit": "%"}, {"measurement": "Reductions in cell viability achieved by day 21", "setting": "[5]; 3 mg/kg and 10 mg/kg dosages, histologic evaluation", "result": "60-70%"}, {"measurement": "Reduction in tumor cell viability (histological score)", "setting": "[5]; 10 mg P-bi-TAT/kg s.c. daily for 21 days", "result": 72, "unit": "%"}]}]}
